Entries after “also recorded” stand apart in the source; their conditions may differ.
Key:
[1] = target: T1, Arabidopsis ABAR/CHLH (H subunit of Mg-chelatase) (Arabidopsis thaliana, UniProt Q9FNB0); test: ABA binding assay with purified yeast-expressed ABAR/CHLH
T1 construct: 6xHis; made in house; host or cells: Pichia methanolica (Pichia Methanolica Expression kit, Invitrogen)
T1 sequence (Q9FNB0 50-1381): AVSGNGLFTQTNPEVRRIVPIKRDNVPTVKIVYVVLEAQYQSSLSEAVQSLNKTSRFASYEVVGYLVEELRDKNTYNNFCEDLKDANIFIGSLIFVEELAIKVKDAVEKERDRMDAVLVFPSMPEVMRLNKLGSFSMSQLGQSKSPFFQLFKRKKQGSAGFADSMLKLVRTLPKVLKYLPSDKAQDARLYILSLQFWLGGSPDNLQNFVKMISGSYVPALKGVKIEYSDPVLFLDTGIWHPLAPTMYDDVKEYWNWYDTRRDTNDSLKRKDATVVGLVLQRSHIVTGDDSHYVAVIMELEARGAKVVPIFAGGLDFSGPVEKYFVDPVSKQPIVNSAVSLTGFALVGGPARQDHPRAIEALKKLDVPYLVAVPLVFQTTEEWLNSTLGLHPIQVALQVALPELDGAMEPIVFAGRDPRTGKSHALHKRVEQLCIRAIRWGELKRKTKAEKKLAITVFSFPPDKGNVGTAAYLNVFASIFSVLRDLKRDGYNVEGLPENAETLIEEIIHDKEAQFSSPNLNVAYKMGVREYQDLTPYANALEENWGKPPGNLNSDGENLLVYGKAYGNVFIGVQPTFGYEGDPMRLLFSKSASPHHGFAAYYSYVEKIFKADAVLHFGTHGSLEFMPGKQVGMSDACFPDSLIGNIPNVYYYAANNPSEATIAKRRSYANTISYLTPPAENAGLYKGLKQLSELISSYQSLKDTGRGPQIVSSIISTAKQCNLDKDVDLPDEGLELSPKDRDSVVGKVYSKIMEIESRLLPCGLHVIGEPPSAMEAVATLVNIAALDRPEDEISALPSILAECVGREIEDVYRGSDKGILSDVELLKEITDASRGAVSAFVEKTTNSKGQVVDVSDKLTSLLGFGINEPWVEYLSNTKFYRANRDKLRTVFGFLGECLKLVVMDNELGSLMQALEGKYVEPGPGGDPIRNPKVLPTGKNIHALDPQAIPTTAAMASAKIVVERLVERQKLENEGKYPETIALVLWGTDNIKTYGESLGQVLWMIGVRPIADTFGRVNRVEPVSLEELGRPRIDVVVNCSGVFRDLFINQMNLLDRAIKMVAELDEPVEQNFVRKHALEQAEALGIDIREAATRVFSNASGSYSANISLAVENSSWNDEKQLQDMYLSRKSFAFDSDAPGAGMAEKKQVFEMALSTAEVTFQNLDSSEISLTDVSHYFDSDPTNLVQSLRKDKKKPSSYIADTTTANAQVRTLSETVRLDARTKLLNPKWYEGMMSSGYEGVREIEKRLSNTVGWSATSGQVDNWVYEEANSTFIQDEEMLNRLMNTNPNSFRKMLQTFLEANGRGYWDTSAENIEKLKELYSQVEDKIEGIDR
Protocol: Full-length ABAR/CHLH coding sequence was PCR-amplified with forward primer 5′-[…]-3′ (SEQ ID NO:30) and reverse primer 5′-[…]-3′ (SEQ ID NO:31). The recombinant ABAR/CHLH was expressed in yeast as a fusion protein with a 6×His (SEQ ID NO:32) tag by using Pichia Methanolica Expression kit (Invitrogen) and the fusion protein was affinity-purified according to manufacturer's instructions.
The ABA-binding activity of ABAR was assayed according to the previously described procedures (Zhang, D. P. et al., Plant physiol. 128:714-725 (2002)) with modifications. The binding medium (medium A) contained 50 mM Tris-HCl (pH 7.0), 2 mM MgCl2, 1 mM CaCl2, and 250 mM mannitol. The medium for extracting the Arabidopsis natural ABAR/CHLH protein (medium B) was the medium A supplemented with 2 mM 1,4-dithiothreitol (DTT), 1 mM phenylmethyl sulfonyl fluoride (PMSF), […] leupeptin, and […] pepstin A but minus 250 mM mannitol. [^3H](+)ABA (American Radiolabeled Chemicals, 2.37×10^12 Bq mmol^−1, purity 98.4%) at 30 nM, or at a step gradient of concentrations from 0 to 70 nM (when analyzing ABA binding kinetics, see FIG. 1a, d1), together with 2 μg purified yeast-expressed ABAR/CHLH protein or 50 μg proteins of the crude extracts from two-week-old Arabidopsis seedlings, was added into the medium A. The total volume for the binding assays was adjusted to 200 μl. The mixtures were incubated at 25° C. for 30 min, and then quickly placed on ice. Following the addition of 100 μl 0.5% (w/v) Dextran T70-coated charcoal (DCC) to remove the free [^3H]ABA by adsorption, the mixtures were maintained on ice for 5 min, and then centrifuged to remove DCC before the radioactivity in the supernatant was counted. The specific binding was determined by the difference between the radioactivity bound to the immuno-purified ABAR protein or crude extracts of Arabidopsis seedlings incubated only with [^3H]ABA (total binding) and radioactivity bound in the presence of 1,000-fold molar excess of unlabeled (+)-ABA (Sigma; non-specific binding. Non-specific binding in all the assays was lower than 10% of the total binding, see FIG. 1a, d1). The unlabeled ABA was added into the incubation medium at the same time with [^3H]ABA. The ABA-binding activity of the crude ABA-binding protein from Arabidopsis seedling was expressed as the number of nanomoles of [^3H]ABA specifically bound per gram of protein, and that of the immuno-purified ABAR protein as the number of moles of [^3H]ABA per mole of protein. The stereo-specificity of the ABA-binding was assayed as described previously (Zhang, D. P. et al., Plant physiol. 128:714-725 (2002)). […] The conditions of incubation were the same as described above (the incubation medium containing 30 nM [^3H]ABA), and the two ABA isomers and (+)-ABA were assayed in the concentrations ranging from 1 to 1000-fold molar excess of [^3H]ABA.

[2] = test system: gl1 seedlings; test: Effects of ABA in vivo on chlorophyll, porphyrins and ABAR/CHLH protein; design: species or system Arabidopsis thaliana; conditions: exogenous ABA treatment, 10 d
Protocol: The contents of chlorophyll, protoporphyrin IX and Mg-protoporphyrin IX were assayed essentially by the previously described procedures (Mochizuki, N. et al., Proc. Natl. Acad. Sci. USA 98:2053-2058 (2001)).
For the effects of ABA in vivo, the seeds of the ecotype gl1 were germinated after stratification on common MS medium and 48 h later transferred to MS medium supplemented with different concentrations of ABA. 10 d later, the contents of chlorophyll and porphyrins including of protoporphyrin IX and Mg-protoporphyrin IX were measured. At the same time total proteins were extracted from leaves for testing the amounts of ABAR/CHLH protein by immunoblotting.

Question: What does the source list for `CC1=CC(=O)CC(C)(C)C1(O)/C=C/C(C)=C\C(=O)O` (stereo not drawn) [ABA, abscisic acid]?
Answer: Kd [1]: 0.032 µM; maximum binding (Bmax) ([1]; pure yeast-expressed ABAR, Scatchard plot): 1.28 mol ABA per mol of protein; MgProto contents [2]: enhances; Proto contents [2]: significantly decreased; also recorded: decreases; chlorophyll contents [2]: significantly decreased; also recorded: decreases; ABAR expression (protein levels) ([2]; immunoblotting): stimulated; also recorded: enhances

Reference: patent US20090044291A1, “DROUGHT-RESISTANT PLANTS AND METHOD FOR PRODUCING THE PLANTS” (D-Helix, priority 2006, published 2009)
